Values belong to the molecule of their own block, whether it stands above or below them.
Columns and labels:
[1] = Test 3-1: metabolic stability test in human hepatic microsome; assay type: in vitro ADME; conditions: Test 3-1: microsome 0.1 mg/mL, test compound 0.1 μmol/L, 37° C., 30 minutes
Protocol: Test 3-1: Metabolic Stability Test in Human Hepatic Microsome
(§1) The metabolic stability of the present compound in human hepatic microsome was evaluated as mentioned below. Human hepatic microsome was obtained from Xenontech. Human hepatic microsome, NADPH, and each test compound were mixed in 25 mmol/L phosphate buffer solution (pH 7.4) to reach the following concentrations as shown below, and the mixture was incubated at 37° C. for 30 minutes. • Human hepatic microsome: 0.1 mg/mL • NAPDH: 3.2 mmol/L • Test compound: 0.1 μmol/L
(§2) The residual ratio of test compound in each sample after 30 minutes was measured by LC-MS, and the metabolic stability in human hepatic microsome was calculated from the following formula. Metabolic stability in human hepatic microsome(mL/min/mg protein)=−LN(residual ratio)/30/0.1

[2] = Test 3-2: metabolic stability test in human hepatic microsome (higher microsome concentration); assay type: in vitro ADME; conditions: Test 3-2: microsome 0.5 or 1.0 mg/mL, test compound 0.1 μmol/L, 30 or 60 minutes
Protocol: Test 3-2: Metabolic Stability Test in Human Hepatic Microsome
as §1, with “For more accurate evaluation of the metabolic stability in human hepatic microsome, the metabolic” for “The metabolic”, “evaluated at an appropriate concentration of human hepatic microsome” for “evaluated”, “for 60” for “for 30”, “microsome: 0.5 or 1.0” for “microsome: 0.1”
as §2, with “of a” for “of”, “30 or 60” for “30”, “ratio)/reaction time/concentration of human hepatic microsome” for “ratio)/30/0.1”

[3] = biological target: T1, human D2 receptor (Homo sapiens, UniProt P14416); test: Test 1: binding activity for human D2 receptor ([3H]Spiperone, CHO cell membrane fraction); conditions: for D2 Ki/5-HT2A Ki / D2 Ki/5-HT7 Ki: ratio of Ki values
T1 construct: purchased PerkinElmer, Inc; host or cells: CHO cells (membrane fraction)
Protocol: (§3) Ki value was evaluated from dissociation constant which was calculated from saturated binding tests, and a substrate concentration, and it was used as an index for binding affinity.

[4] = biological target: T2, hERG channel (Homo sapiens, UniProt Q12809); test: Test 5: inhibitory activity for hERG channel (whole cell patch clamp, hERG-CHO cells); assay type: cell-based
T2 construct: host or cells: hERG-CHO cells
Protocol: Test 5: Evaluation of Inhibitory Activity for hERG Channel
Inhibitory activity of the present compound for hERG channel was measured by whole cell patch clamp method with an auto patch clamp system using CHO cells in which hERG channel involved in human rapidly activating delayed rectifier potassium current (IKr) was forcibly expressed.
hERG-CHO cells purchased from ChanTest Cop. were cultured in a CO2 incubator at 37° C., and dissociated from a flask with trypsin shortly before the measurement of hERG current to prepare a cell suspension.
The cell suspension, the extracellular fluid, the intracellular fluid, and the measurement plate were set in an auto patch clamp system, and hERG current was measured by whole cell patch clamp method. […] Each pulse interval was 15 seconds. The data analysis was carried out with Qube Assay Software (Sophion Sophion). The test was carried out by applying incrementally 4 concentrations of each test compound, and the average of the maximum peak tail currents which were obtained from the last 3 stimulations in each concentration was determined as the evaluated data.

[5] = biological target: T3, human 5-HT2A receptor (Homo sapiens, UniProt P28223); test: Test 1: binding activity for human 5-HT2A receptor ([3H]Ketanserin, CHO cell membrane fraction)
Protocol: as §3

[6] = biological target: T3, human 5-HT2A receptor; test: Test 2: antagonist activity for human 5-HT2A receptor (aequorin luminescence, CHO-K1 cells); assay type: cell-based; conditions: Gα16
Protocol: (§4) Test 2: Evaluation of Antagonist Activity for Human 5-HT2A Receptor and Human 5-HT7 Receptor
(§5) Aequorin, Gα 16 protein, and each receptor were transiently expressed in CHO-K1 cells (Chinese hamster ovary). The cells were cultivated in a CO2 incubator at 37° C. overnight, seeded into a 384-well plate, and stood at room temperature for 2 hours. Each compound dissolved in DMSO was added thereto, and changes in luminescence were measured by FDSS/μCELL drug discovery screening support system (Hamamatsu Photonics K.K.). As for antagonist activity, inhibitory activity of each compound was calculated by setting the luminescence level of wells to which 10 μmol/L endogenous ligand was added as 100%.

[7] = biological target: T4, human 5-HT7 receptor (Homo sapiens, UniProt P34969); test: Test 1: binding activity for human 5-HT7 receptor ([3H]SB-269970, CHO cell membrane fraction)
Protocol: as §3

[8] = biological target: T4, human 5-HT7 receptor; test: Test 2: antagonist activity for human 5-HT7 receptor (aequorin luminescence, CHO-K1 cells); assay type: cell-based; conditions: Gα16
Protocol: as §4, §5

T1 sequence (P14416 whole entry): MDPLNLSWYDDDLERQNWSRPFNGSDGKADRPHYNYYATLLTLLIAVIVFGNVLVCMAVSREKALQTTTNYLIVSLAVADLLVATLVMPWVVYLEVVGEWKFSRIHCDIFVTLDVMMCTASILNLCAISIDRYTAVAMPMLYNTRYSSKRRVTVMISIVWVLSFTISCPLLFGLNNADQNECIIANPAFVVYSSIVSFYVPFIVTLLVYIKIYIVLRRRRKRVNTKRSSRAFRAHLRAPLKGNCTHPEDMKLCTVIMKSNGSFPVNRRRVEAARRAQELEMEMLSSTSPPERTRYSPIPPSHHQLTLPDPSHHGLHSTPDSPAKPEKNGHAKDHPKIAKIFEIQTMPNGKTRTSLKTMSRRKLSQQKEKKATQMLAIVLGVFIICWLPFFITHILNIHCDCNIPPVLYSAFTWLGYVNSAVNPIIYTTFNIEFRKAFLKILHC
T3 sequence (P28223 whole entry): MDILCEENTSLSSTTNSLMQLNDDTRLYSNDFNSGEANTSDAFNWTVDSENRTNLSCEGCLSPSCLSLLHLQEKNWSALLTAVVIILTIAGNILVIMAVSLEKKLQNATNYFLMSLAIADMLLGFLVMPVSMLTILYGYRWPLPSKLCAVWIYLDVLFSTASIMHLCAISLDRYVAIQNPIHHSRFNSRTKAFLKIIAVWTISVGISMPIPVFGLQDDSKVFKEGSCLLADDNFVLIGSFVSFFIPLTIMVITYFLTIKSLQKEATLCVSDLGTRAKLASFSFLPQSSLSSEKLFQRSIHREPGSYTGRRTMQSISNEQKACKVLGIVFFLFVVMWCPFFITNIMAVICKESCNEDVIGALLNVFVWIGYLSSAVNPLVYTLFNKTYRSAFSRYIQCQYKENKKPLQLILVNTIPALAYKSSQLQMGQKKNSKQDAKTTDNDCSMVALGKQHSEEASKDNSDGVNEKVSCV
T4 sequence (P34969 whole entry): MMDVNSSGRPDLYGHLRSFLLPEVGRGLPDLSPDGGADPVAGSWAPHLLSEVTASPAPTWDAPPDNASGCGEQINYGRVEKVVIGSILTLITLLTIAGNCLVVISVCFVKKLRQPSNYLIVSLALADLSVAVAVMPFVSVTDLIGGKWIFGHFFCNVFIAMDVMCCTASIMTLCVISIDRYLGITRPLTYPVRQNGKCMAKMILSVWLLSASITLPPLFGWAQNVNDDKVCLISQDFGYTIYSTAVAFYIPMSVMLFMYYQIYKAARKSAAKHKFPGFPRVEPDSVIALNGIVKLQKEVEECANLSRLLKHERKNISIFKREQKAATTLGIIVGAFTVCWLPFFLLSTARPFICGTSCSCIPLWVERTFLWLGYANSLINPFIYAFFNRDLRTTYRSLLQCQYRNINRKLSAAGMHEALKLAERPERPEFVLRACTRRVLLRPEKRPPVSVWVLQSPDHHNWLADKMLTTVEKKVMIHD
T2 sequence (Q12809 whole entry): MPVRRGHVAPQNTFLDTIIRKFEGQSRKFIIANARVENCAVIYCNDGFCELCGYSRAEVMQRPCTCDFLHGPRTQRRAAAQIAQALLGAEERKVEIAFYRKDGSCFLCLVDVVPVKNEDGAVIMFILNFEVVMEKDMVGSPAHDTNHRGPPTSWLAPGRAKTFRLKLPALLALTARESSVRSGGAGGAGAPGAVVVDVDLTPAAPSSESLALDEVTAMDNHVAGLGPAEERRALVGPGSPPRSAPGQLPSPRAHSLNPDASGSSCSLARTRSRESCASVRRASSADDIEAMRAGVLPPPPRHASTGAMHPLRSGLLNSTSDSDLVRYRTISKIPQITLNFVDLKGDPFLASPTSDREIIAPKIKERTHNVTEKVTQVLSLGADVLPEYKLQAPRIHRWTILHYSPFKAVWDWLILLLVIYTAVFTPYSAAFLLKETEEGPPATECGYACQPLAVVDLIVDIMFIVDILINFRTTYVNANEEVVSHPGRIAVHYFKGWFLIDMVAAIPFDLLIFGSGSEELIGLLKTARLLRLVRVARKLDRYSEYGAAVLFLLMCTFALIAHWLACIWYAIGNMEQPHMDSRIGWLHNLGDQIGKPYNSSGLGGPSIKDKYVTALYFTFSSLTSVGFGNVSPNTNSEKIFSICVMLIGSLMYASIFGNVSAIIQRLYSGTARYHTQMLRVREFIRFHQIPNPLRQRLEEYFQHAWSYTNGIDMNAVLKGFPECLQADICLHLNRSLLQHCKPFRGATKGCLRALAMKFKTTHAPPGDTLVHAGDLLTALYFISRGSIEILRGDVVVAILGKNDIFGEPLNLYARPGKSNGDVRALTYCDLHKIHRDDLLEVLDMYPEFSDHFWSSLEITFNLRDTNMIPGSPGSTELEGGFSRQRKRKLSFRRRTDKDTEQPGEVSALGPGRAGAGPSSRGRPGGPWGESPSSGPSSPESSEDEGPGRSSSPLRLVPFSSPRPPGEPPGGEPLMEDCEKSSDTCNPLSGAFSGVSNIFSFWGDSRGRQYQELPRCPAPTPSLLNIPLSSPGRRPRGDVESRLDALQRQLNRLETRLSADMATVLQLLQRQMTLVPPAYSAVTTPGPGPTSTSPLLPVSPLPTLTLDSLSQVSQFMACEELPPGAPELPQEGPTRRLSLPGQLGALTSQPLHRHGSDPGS

Structure (SMILES): CCN(CCN1CCC(c2noc3cc(F)ccc23)CC1)C(=O)[C@H](C)O [Example 16, (2S)-N-Ethyl-N-{2-[4-(6-fluoro-1,2-benzoisoxazol-3-yl)piperidin-1-yl]ethyl}-2-hydroxypropanamide]
- Metabolic stability in human hepatic microsome [1]: <0.05 mL/min/mg protein
- Metabolic stability in human hepatic microsome [2]: 0.018 mL/min/mg protein

Structure (SMILES): CCN(CCN1CCC(c2noc3cc(F)ccc23)CC1)C(=O)CCO [Example 17, N-Ethyl-N-{2-[4-(6-fluoro-1,2-benzoisoxazol-3-yl)piperidin-1-yl]ethyl}-3-hydroxypropanamide]
- Metabolic stability in human hepatic microsome [1]: <0.05 mL/min/mg protein
- Metabolic stability in human hepatic microsome [2]: 0.0025 mL/min/mg protein

Structure (SMILES): CCN(CCN1CCC(c2noc3cc(F)ccc23)CC1)S(=O)(=O)CCO [Example 51, N-Ethyl-N-{2-[4-(6-fluoro-1,2-benzoisoxazol-3-yl)piperidin-1-yl]ethyl}-2-hydroxyethane-1-sulfonamide]
- Metabolic stability in human hepatic microsome [1]: <0.05 mL/min/mg protein
- Metabolic stability in human hepatic microsome [2]: 0.016 mL/min/mg protein

Structure (SMILES): CCN(CCN1CCC(c2noc3cc(F)ccc23)CC1)S(=O)(=O)C(C)CO (centres unmarked) [Example 52]
- D2 Ki/5-HT2A Ki [3]: >34
- D2 Ki/5-HT7 Ki [3]: >30

Structure (SMILES): CCN(CCN1CCC(c2noc3cc(F)ccc23)CC1)C(=O)C(O)CN (centres unmarked) [Example 65, 3-Amino-N-ethyl-N-{2-[4-(6-fluoro-1,2-benzoisoxazol-3-yl)piperidin-1-yl]ethyl}-2-hydroxypropanamide]
- Metabolic stability in human hepatic microsome [1]: <0.05 mL/min/mg protein
- D2 Ki/5-HT2A Ki [3]: 48
- D2 Ki/5-HT7 Ki [3]: 26

Structure (SMILES): CCN(CCN1CCC(c2noc3cc(F)ccc23)CC1)C(=O)C1(O)CCNC1 (centres unmarked) [Example 70]
- Metabolic stability in human hepatic microsome [1]: <0.05 mL/min/mg protein

Structure (SMILES): CCN(CCN1CCC(c2noc3cc(F)ccc23)CC1)C(=O)C(O)CNC(C)=O (centres unmarked) [Example 71, 3-Acetamide-N-ethyl-N-{2-[4-(6-fluoro-1,2-benzoisoxazol-3-yl)piperidin-1-yl]ethyl}-2-hydroxypropanamide]
- Metabolic stability in human hepatic microsome [1]: <0.05 mL/min/mg protein
- IC50 ([4]; hERG-CHO cells, auto patch clamp): > 10 µM
- hERG inhibitory IC50 (nmol/L)/5-HT7 Ki (nmol/L) ([4]; ratio): >1624
- Ki [5]: 2.2 nM
- IC50 [6]: 25 nM
- Ki ([3]; human D2 receptor, [3H]Spiperone): 223 nM
- D2 Ki/5-HT2A Ki [3]: 99
- D2 Ki/5-HT7 Ki [3]: 36
- Ki [7]: 6.2 nM
- IC50 [8]: 78 nM

Results, then the molecule that gave them:

- Metabolic stability in human hepatic microsome [1]: 0.057 mL/min/mg protein
Structure (SMILES): CCN(CCN1CCC(c2noc3cc(F)ccc23)CC1)C(=O)C1(O)CCCN(C(C)=O)C1 (centres unmarked) [Example 72]

- Metabolic stability in human hepatic microsome [1]: <0.05 mL/min/mg protein
Structure (SMILES): CCN(CCN1CCC(c2noc3cc(F)ccc23)CC1)C(=O)C1CN(C(C)=O)CCC1O (centres unmarked) [Example 74]

- Metabolic stability in human hepatic microsome [1]: <0.05 mL/min/mg protein
Structure (SMILES): CCN(CCN1CCC(c2noc3cc(F)ccc23)CC1)C(=O)C1CN(C)CC1O (centres unmarked) [Example 75, N-Ethyl-N-{2-[4-(6-fluoro-1,2-benzoisoxazol-3-yl)piperidin-1-yl]ethyl}-4-hydroxy-1-methylpyrrolidine-3-carboxamide]

- Metabolic stability in human hepatic microsome [1]: <0.05 mL/min/mg protein
Structure (SMILES): CCN(CCN1CCC(c2noc3cc(F)ccc23)CC1)C(=O)C1CN(C)CCC1O (centres unmarked) [Example 76, N-Ethyl-N-{2-[4-(6-fluoro-1,2-benzoisoxazol-3-yl)piperidin-1-yl]ethyl}-4-hydroxy-1-methylpiperidine-3-carboxamide]

— US12503463B2, “Aliphatic acid amide derivative” (Sumitomo Pharma Co., Ltd., priority 2019, dated 2025)
